Measurements reported in paper PMC9330389, “Bambus[4,6]urils as Dual Scaffolds for Multivalent Iminosugar Presentation and Ion Transport: Access to Unprecedented Glycosidase-Directed Anion Caging Agents” (Molecules, 2022).
Like-named read-outs stand apart in the source and are kept apart here.

Legend:
[1] = Isothermal titration calorimetry of iodide binding to bambusuril; settings: in water, ITC
Experimental: ITC measurements were performed with a VP-ITC microcalorimeter (Microcal, GEHealthcare). Experiments were carried out in water and in a solution of K2HPO4 (1.5 mM) in mili-Q water at 298.15 ± 0.1 K. Anion binding to BU was investigated via a classical isothermal titration experiment (10 µL additions) and a single injection method (SIM). Injection of sodium iodide solution was added automatically to the BU solution present in the calorimeter cell while stirring at 307 rpm. Integrated heat effects were analyzed by non-linear regression using a single-site binding model (Microcal Origin 7). The experimental data fitted to a theorical titration curve, giving the association constant Ka, the enthalpy of binding ΔH° and the entropy ΔS°. The free energy ΔG° was calculated from the equation: ΔG° = ΔH° − TΔS°, where T is the absolute temperature. The first smaller addition (2 µL), which was used to compensate for diffusion of the guest from the injector during equilibration, was discarded prior to data fitting.
Figure S1. Isothermal titration calorimetry of I- binding to (DNJ-C6)12BU[6] 6 in H2O.
Top: Data were obtained from the sequential injections of 10µL of guest solution (0.6 mM NaI) to BU
6 (0.05 mM). Bottom: Plot of the total heat released as a function of the total ligand concentration
for the titration shown upper.
(1 picture or pasted object on this page, not shown here)

[2] = target: T1, Jack Bean α-mannosidase (Canavalia ensiformis, UniProt C0HJB3); test: Inhibition assays on Jack-Bean α-mannosidase (p-nitrophenyl-α-D-mannopyranoside hydrolysis, Dixon and Lineweaver–Burk); type: biochemical; settings: for Ki: 0.2 M acetate buffer pH 5, 25-27 °C, for mixed inhibitors the first value of the cell (Ki); for Ki': mixed inhibition, second value of the cell (Ki' in supplement); for Rp (relative potency): rp = Ki (monovalent reference)/Ki (neoglycocluster); for rp/n (relative potency per inhitope): n = number of inhitope units
T1 construct: purchased Sigma Aldrich, St. Louis, MO, USA
T1 sequence (C0HJB3 1-981): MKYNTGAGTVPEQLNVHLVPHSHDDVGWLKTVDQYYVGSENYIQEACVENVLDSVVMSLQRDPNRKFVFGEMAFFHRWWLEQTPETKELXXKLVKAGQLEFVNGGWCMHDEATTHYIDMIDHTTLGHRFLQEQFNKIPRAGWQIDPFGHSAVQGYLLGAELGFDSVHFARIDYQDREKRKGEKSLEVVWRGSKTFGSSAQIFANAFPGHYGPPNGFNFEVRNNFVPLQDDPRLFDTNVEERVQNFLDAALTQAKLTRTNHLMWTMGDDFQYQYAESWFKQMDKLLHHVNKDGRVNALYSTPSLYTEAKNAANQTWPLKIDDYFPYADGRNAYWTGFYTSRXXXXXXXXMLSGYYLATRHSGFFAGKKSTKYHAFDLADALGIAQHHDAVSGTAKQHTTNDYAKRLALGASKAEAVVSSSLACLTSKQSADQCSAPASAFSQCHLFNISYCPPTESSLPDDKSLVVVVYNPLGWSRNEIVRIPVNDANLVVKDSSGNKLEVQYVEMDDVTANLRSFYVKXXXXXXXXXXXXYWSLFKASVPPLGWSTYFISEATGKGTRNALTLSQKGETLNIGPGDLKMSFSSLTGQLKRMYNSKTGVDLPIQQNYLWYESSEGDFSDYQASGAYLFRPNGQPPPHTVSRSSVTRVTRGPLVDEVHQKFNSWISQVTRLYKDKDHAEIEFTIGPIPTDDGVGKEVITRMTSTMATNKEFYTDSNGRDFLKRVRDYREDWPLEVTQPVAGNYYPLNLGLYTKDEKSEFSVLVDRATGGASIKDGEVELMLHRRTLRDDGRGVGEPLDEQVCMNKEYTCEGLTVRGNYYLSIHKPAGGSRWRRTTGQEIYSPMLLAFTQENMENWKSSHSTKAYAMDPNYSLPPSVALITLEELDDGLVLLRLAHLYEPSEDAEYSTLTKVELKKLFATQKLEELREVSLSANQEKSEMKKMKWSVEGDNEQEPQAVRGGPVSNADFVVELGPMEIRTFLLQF
Experimental: p-nitrophenyl-α-D-mannopyranoside and α-mannosidase (EC 3.2.1.24, from Jack Bean) were purchased from Sigma Aldrich, St. Louis, MO, USA. Inhibition constants were determined spectrophotometrically by measuring the residual hydrolytic activities of the α-mannosidase against p-nitrophenyl-α-D-mannopyranoside in the presence and absence of an inhibitor. Each well was filled with a total volume of 100 µL, containing 0.2 M acetate buffer pH 5, inhibitor, substrate and enzyme. All kinetics were performed between 25 °C and 27 °C and started by enzyme addition. After 30–50 min of incubation, the reaction was quenched by addition of 100 µL of 1M Na2CO3. The absorbance of the resulting solution was determined at 405 nm. Ki values were determined in triplicate, using the Dixon and Lineweaver–Burk graphical methods within Microsoft Excel. Stock solutions of inhibitors were prepared with DMSO/buffer for final well DMSO content under 5%. The stability of the enzyme in the presence of the same concentrations of DMSO was controlled and enzyme activity was unaffected.

[3] = target: T1, Jack Bean α-mannosidase; settings: cited from earlier work; for Inhibition Mode: monovalent references

| Structure (SMILES) | Ka (iodide) [1] | Inhibition Mode [2] | Ki [2] | Ki' [2] | Rp (relative potency) [2] | rp/n (relative potency per inhitope) [2] | Ki ([3]; monovalent C6 reference) | Inhibition Mode [3] | Ki ([3]; monovalent C9 reference) |
| --- | --- | --- | --- | --- | --- | --- | --- | --- | --- |
| O=C1N(Cc2cn(CCCCCCN3C[C@H](O)[C@@H](O)[C@H](O)[C@H]3CO)nn2)C2C(N1Cc1cn(CCCCCCN3C[C@H](O)[C@@H](O)[C@H](O)[C@H]3CO)nn1)N1CN3C(=O)N(CN4C(=O)N(CN5C(=O)N(CN6C(=O)N(CN7C(=O)N(CN2C1=O)C1C7N(Cc2cn(CCCCCCN7C[C@H](O)[C@@H](O)[C@H](O)[C@H]7CO)nn2)C(=O)N1Cc1cn(CCCCCCN2C[C@H](O)[C@@H](O)[C@H](O)[C@H]2CO)nn1)C1C6N(Cc2cn(CCCCCCN6C[C@H](O)[C@@H](O)[C@H](O)[C@H]6CO)nn2)C(=O)N1Cc1cn(CCCCCCN2C[C@H](O)[C@@H](O)[C@H](O)[C@H]2CO)nn1)C1C5N(Cc2cn(CCCCCCN5C[C@H](O)[C@@H](O)[C@H](O)[C@H]5CO)nn2)C(=O)N1Cc1cn(CCCCCCN2C[C@H](O)[C@@H](O)[C@H](O)[C@H]2CO)nn1)C1C4N(Cc2cn(CCCCCCN4C[C@H](O)[C@@H](O)[C@H](O)[C@H]4CO)nn2)C(=O)N1Cc1cn(CCCCCCN2C[C@H](O)[C@@H](O)[C@H](O)[C@H]2CO)nn1)C1C3N(Cc2cn(CCCCCCN3C[C@H](O)[C@@H](O)[C@H](O)[C@H]3CO)nn2)C(=O)N1Cc1cn(CCCCCCN2C[C@H](O)[C@@H](O)[C@H](O)[C@H]2CO)nn1 (stereo partly shown) [Compound 6, (DNJ-C6)12BU[6]] | 480000 M⁻¹ | mixed | 68.2 µM | 147 ± 21 µM | 4.7 |  |  |  |  |
| CCCC[N+](CCCC)(CCCC)CCCC.O=C1N(Cc2cn(CCCCCCN3C[C@H](O)[C@@H](O)[C@H](O)[C@H]3CO)nn2)C2C(N1Cc1cn(CCCCCCN3C[C@H](O)[C@@H](O)[C@H](O)[C@H]3CO)nn1)N1CN3C(=O)N(CN4C(=O)N(CN5C(=O)N(CN6C(=O)N(CN7C(=O)N(CN2C1=O)C1C7N(Cc2cn(CCCCCCN7C[C@H](O)[C@@H](O)[C@H](O)[C@H]7CO)nn2)C(=O)N1Cc1cn(CCCCCCN2C[C@H](O)[C@@H](O)[C@H](O)[C@H]2CO)nn1)C1C6N(Cc2cn(CCCCCCN6C[C@H](O)[C@@H](O)[C@H](O)[C@H]6CO)nn2)C(=O)N1Cc1cn(CCCCCCN2C[C@H](O)[C@@H](O)[C@H](O)[C@H]2CO)nn1)C1C5N(Cc2cn(CCCCCCN5C[C@H](O)[C@@H](O)[C@H](O)[C@H]5CO)nn2)C(=O)N1Cc1cn(CCCCCCN2C[C@H](O)[C@@H](O)[C@H](O)[C@H]2CO)nn1)C1C4N(Cc2cn(CCCCCCN4C[C@H](O)[C@@H](O)[C@H](O)[C@H]4CO)nn2)C(=O)N1Cc1cn(CCCCCCN2C[C@H](O)[C@@H](O)[C@H](O)[C@H]2CO)nn1)C1C3N(Cc2cn(CCCCCCN3C[C@H](O)[C@@H](O)[C@H](O)[C@H]3CO)nn2)C(=O)N1Cc1cn(CCCCCCN2C[C@H](O)[C@@H](O)[C@H](O)[C@H]2CO)nn1.[Br-] (stereo partly shown) [Compound 8, Br^−@(DNJ-C6)12BU[6].TBA^+] |  | mixed | 85.6 µM | 191 ± 37 µM | 3.8 |  |  |  |  |
| CCCC[N+](CCCC)(CCCC)CCCC.O=C1N(Cc2cn(CCCCCCN3C[C@H](O)[C@@H](O)[C@H](O)[C@H]3CO)nn2)C2C(N1Cc1cn(CCCCCCN3C[C@H](O)[C@@H](O)[C@H](O)[C@H]3CO)nn1)N1CN3C(=O)N(CN4C(=O)N(CN5C(=O)N(CN6C(=O)N(CN7C(=O)N(CN2C1=O)C1C7N(Cc2cn(CCCCCCN7C[C@H](O)[C@@H](O)[C@H](O)[C@H]7CO)nn2)C(=O)N1Cc1cn(CCCCCCN2C[C@H](O)[C@@H](O)[C@H](O)[C@H]2CO)nn1)C1C6N(Cc2cn(CCCCCCN6C[C@H](O)[C@@H](O)[C@H](O)[C@H]6CO)nn2)C(=O)N1Cc1cn(CCCCCCN2C[C@H](O)[C@@H](O)[C@H](O)[C@H]2CO)nn1)C1C5N(Cc2cn(CCCCCCN5C[C@H](O)[C@@H](O)[C@H](O)[C@H]5CO)nn2)C(=O)N1Cc1cn(CCCCCCN2C[C@H](O)[C@@H](O)[C@H](O)[C@H]2CO)nn1)C1C4N(Cc2cn(CCCCCCN4C[C@H](O)[C@@H](O)[C@H](O)[C@H]4CO)nn2)C(=O)N1Cc1cn(CCCCCCN2C[C@H](O)[C@@H](O)[C@H](O)[C@H]2CO)nn1)C1C3N(Cc2cn(CCCCCCN3C[C@H](O)[C@@H](O)[C@H](O)[C@H]3CO)nn2)C(=O)N1Cc1cn(CCCCCCN2C[C@H](O)[C@@H](O)[C@H](O)[C@H]2CO)nn1.[I-] (stereo partly shown) [Compound 9, I^-@(DNJ-C6)12BU[6].TBA^+] |  | mixed | 108 µM | 162 ± 40 µM | 3.0 | < 1 |  |  |  |
| CCCC[N+](CCCC)(CCCC)CCCC.O=C1N(Cc2cn(CCCCCCCCCN3C[C@H](O)[C@@H](O)[C@H](O)[C@H]3CO)nn2)C2C(N1Cc1cn(CCCCCCCCCN3C[C@H](O)[C@@H](O)[C@H](O)[C@H]3CO)nn1)N1CN3C(=O)N(CN4C(=O)N(CN5C(=O)N(CN6C(=O)N(CN7C(=O)N(CN2C1=O)C1C7N(Cc2cn(CCCCCCCCCN7C[C@H](O)[C@@H](O)[C@H](O)[C@H]7CO)nn2)C(=O)N1Cc1cn(CCCCCCCCCN2C[C@H](O)[C@@H](O)[C@H](O)[C@H]2CO)nn1)C1C6N(Cc2cn(CCCCCCCCCN6C[C@H](O)[C@@H](O)[C@H](O)[C@H]6CO)nn2)C(=O)N1Cc1cn(CCCCCCCCCN2C[C@H](O)[C@@H](O)[C@H](O)[C@H]2CO)nn1)C1C5N(Cc2cn(CCCCCCCCCN5C[C@H](O)[C@@H](O)[C@H](O)[C@H]5CO)nn2)C(=O)N1Cc1cn(CCCCCCCCCN2C[C@H](O)[C@@H](O)[C@H](O)[C@H]2CO)nn1)C1C4N(Cc2cn(CCCCCCCCCN4C[C@H](O)[C@@H](O)[C@H](O)[C@H]4CO)nn2)C(=O)N1Cc1cn(CCCCCCCCCN2C[C@H](O)[C@@H](O)[C@H](O)[C@H]2CO)nn1)C1C3N(Cc2cn(CCCCCCCCCN3C[C@H](O)[C@@H](O)[C@H](O)[C@H]3CO)nn2)C(=O)N1Cc1cn(CCCCCCCCCN2C[C@H](O)[C@@H](O)[C@H](O)[C@H]2CO)nn1.[Br-] (stereo partly shown) [Compound 10, Br^-@(DNJ-C9)12BU[6].TBA^+] |  | competitive | 0.488 µM |  | 385 | 32 |  |  |  |
| CCCn1cc(CCCCCCN2C[C@H](O)[C@@H](O)[C@H](O)[C@H]2CO)nn1 [Compound 21] |  |  |  |  |  |  | 322 µM | competitive |  |
| CCCn1cc(CCCCCCCCCN2C[C@H](O)[C@@H](O)[C@H](O)[C@H]2CO)nn1 [Compound 22] |  |  |  |  |  |  |  | competitive | 188 µM |
